Measured values reported in article PMC3684244 (Harmful algae, 2013).
“And” between values parts separate entries of the source, which are not always exact repeats. Equal values may be shown once.

Experiments:
[1] = test system: brevenal site on voltage-sensitive sodium channels (VSSCs), rat brain synaptosomes; assay type: binding
[2] = test system: site 5 on voltage-sensitive sodium channels (VSSCs), rat brain synaptosomes; conditions: cited from earlier work
[3] = biological target: site 5 on voltage-sensitive sodium channels (VSSCs), rat brain synaptosomes; conditions: read-out: Ki for inhibition of [^3H]-PbTx-3 binding

Row | Compound | Inhibition of [^3H]-brevenol binding (maximum concentration tested) [1] | other results
1 | N=C(N)NC(=O)c1nc(Cl)c(N)nc1N [Amiloride] | No displacement (10 ! M) | –
2 | C=C/C=C\CC[C@H]1O[C@H]2CC[C@@]3(C)O[C@H]4[C@@H](O)C[C@@]5(C)O[C@@H](CC/C=C(C)/C(C)=C/C=O)[C@@H](C)C[C@H]5O[C@@H]4C[C@@H]3O[C@@H]2CC[C@@]1(C)O [Brevenal, brevenal] | – | Ki ([1]; read-out: Ki for inhibition of [^3H]-brevenol binding): 75 nM and 74.8 nM; Affinity for inhibiting brevetoxin binding relative to brevetoxins (fold lower) [2]: approximately 100 fold; Ki [3]: 98 nM
3 | CC1(C)[C@H](C(=O)O[C@H](C#N)c2cccc(Oc3ccccc3)c2)[C@@H]1C=C(Br)Br [Deltamethrin] | No displacement (100 ! M) | –
4 | NC1=N[C@H](O)[C@H]2[C@H]3O[C@]4(O)O[C@@H]([C@@H](O)[C@@]2(N1)[C@@H]4O)[C@]3(O)CO [Tetrodotoxin] | No displacement (10 ! M) | –
5 | COc1ccc(C(=O)O[C@H]2CC[C@@]3(C)[C@@H]4CC[C@H]5[C@]6(O)C[C@H](O)[C@@]7(O)[C@@H](CN8C[C@@H](C)CC[C@H]8[C@@]7(C)O)[C@]6(O)C[C@@]53O[C@]24O)cc1OC [Veratridine] | No displacement (10 ! M) | –
6 | CCN1C[C@]2(COC)[C@H](O)C[C@H](OC)[C@@]34[C@@H]5C[C@@]6(O)[C@H](OC(=O)c7ccccc7)[C@@H]5[C@@](OC(C)=O)([C@@H]([C@H](OC)[C@H]23)[C@@H]14)[C@@H](O)[C@@H]6OC [aconitine] | No displacement (10 ! M) | –
